Experimental data published in article PMC5960717 (Frontiers in Microbiology, 2018).
One block for each molecule: values may come before it.

Key:
ScAlt1 [1] = biological target: T1, ScAlt1 (Saccharomyces cerevisiae, UniProt P52893); test: intrinsic fluorescence titration ([…] nm); type: binding
T1 construct: gene ALT1; N-terminal His-tag (pET-28a), E. coli Rosetta 2 (DE3); theoretical monomer 61 kDa, SEC 147 kDa, dimer
T1 sequence (P52893 81-592): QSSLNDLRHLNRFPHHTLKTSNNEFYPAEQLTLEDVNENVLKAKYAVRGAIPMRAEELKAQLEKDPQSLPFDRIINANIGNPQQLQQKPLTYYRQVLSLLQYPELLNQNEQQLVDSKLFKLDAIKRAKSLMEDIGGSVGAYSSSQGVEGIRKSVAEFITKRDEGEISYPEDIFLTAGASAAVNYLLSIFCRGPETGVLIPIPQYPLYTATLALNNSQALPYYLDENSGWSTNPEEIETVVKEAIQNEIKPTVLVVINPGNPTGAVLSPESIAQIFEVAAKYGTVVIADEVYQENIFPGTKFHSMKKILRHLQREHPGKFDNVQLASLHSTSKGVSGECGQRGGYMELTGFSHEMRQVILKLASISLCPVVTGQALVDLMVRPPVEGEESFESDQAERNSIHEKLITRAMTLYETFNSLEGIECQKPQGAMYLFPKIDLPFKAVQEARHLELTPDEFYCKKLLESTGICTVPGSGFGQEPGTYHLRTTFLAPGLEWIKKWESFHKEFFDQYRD

ScAlt1 [2] = biological target: T1, ScAlt1; test: UV-visible shift, external Schiff base ([…] nm); type: binding; conditions: 50 mM KH2PO4, 4 mM MgCl2, PLP, covalent
ScAlt1 [3] = biological target: T1, ScAlt1; test: UV-visible absorption of Schiff base ([…]-335 and […] nm), NaBH4 reduction; type: binding; conditions: covalent (reversible internal Schiff base, enolimine and ketoenamine); 50 mM K2HPO4, 4 mM MgCl2, pH 7.5, 100 μM PLP
ScAlt2 = biological target: T2, ScAlt2 (Saccharomyces cerevisiae, UniProt P52892); test: UV-visible absorption of Schiff base ([…] nm), NaBH4 reduction; type: binding; conditions: covalent (reversible internal Schiff base, ketoenamine); 50 mM K2HPO4, 4 mM MgCl2, pH 7.5, 100 μM PLP
T2 construct: gene ALT2; N-terminal His-tag (pET-28a), E. coli Rosetta 2 (DE3), 4°C expression; forward primer ATGACAATGACACACCAACAGG (MTMTHQQ); theoretical monomer 58 kDa, SEC 127 kDa, dimer
T2 sequence (P52892 1-507): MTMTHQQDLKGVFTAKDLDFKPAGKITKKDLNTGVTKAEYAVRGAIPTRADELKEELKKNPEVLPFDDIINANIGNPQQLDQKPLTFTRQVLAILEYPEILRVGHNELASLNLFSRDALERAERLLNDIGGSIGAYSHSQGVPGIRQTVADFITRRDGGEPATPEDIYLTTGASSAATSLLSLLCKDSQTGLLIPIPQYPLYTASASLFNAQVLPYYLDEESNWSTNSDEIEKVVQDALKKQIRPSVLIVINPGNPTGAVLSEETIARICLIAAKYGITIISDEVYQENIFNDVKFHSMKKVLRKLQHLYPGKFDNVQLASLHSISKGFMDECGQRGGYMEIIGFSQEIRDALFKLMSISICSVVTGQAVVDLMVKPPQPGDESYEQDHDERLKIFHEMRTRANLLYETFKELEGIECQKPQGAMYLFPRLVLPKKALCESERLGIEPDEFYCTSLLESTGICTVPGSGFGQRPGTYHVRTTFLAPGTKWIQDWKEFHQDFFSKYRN

[4] = biological target: the molecule itself; test: SEC; Superose 6 10/300 GL on an Akta FPLC; mobile phase 50 mM K2HPO4, 4 mM Mg2Cl, pH 7.5; calibrated with Bio-Rad molecular weight standards
purified protein [5] = substrate: O=C(O)CCC(=O)C(=O)O; test: purified protein; type: biochemical, Saccharomyces cerevisiae; conditions: varied alanine 2-15 mM and α-ketoglutarate 0.05-10 mM, 40 μM PLP, pH 7.5, 25°C, ping-pong, Ka here = Michaelis constant, co-substrate alanine
purified protein [6] = substrate: C[C@H](N)C(=O)O; test: purified protein; conditions: varied alanine 2-15 mM and α-ketoglutarate 0.05-10 mM, 40 μM PLP, pH 7.5, 25°C, ping-pong, Ka here = Michaelis constant
[7] = 1 μl of 81 mM stock added to 10 μl protein

Kd (ScAlt1 [1]): 1 ± 0.1 mM
Molecule: C[C@H](N)C(=O)O [alanine]

Molecule: N[C@@H](CCC(=O)O)C(=O)O [glutamate]
UV-visible shift, external Schiff base (325 nm) (ScAlt1 [2]; [7]): ScAlt1 could form external Schiff base with glutamate, serine, cysteine, histidine, and aspartic acid

Molecule: Cc1ncc(COP(=O)(O)O)c(C=O)c1O [PLP]
UV-visible absorption of Schiff base (330-335 and 420 nm), NaBH4 reduction (ScAlt1 [3]): both, ScAlt1 and ScAlt2 have PLP attached through a Schiff base
UV-visible absorption of Schiff base (420 nm), NaBH4 reduction (ScAlt2): both, ScAlt1 and ScAlt2 have PLP attached through a Schiff base

Molecule: N[C@@H](CS)C(=O)O [cysteine]
UV-visible shift, external Schiff base (325 nm) (ScAlt1 [2]; 1 μl of 238 mM stock added to 10 μl protein): ScAlt1 could form external Schiff base with glutamate, serine, cysteine, histidine, and aspartic acid

Molecule: N[C@@H](CC(=O)O)C(=O)O [aspartic acid]
UV-visible shift, external Schiff base (325 nm) (ScAlt1 [2]; [7]): ScAlt1 could form external Schiff base with glutamate, serine, cysteine, histidine, and aspartic acid

Molecule: N[C@@H](CO)C(=O)O [serine]
UV-visible shift, external Schiff base (325 nm) (ScAlt1 [2]; 1 μl of 23 mM stock added to 10 μl protein): ScAlt1 could form external Schiff base with glutamate, serine, cysteine, histidine, and aspartic acid

Molecule: N[C@@H](Cc1cnc[nH]1)C(=O)O [histidine]
UV-visible shift, external Schiff base (325 nm) (ScAlt1 [2]; 1 μl of 20 mM stock added to 10 μl protein): ScAlt1 could form external Schiff base with glutamate, serine, cysteine, histidine, and aspartic acid

B1: ScAlt1 (Saccharomyces cerevisiae alanine transaminase), recombinant, without the mitochondrial localization sequence (enzyme, S. cerevisiae, UniProt P52893 65-592, looked up)
chain: SSSWIVAQNHRRSLSGQSSLNDLRHLNRFPHHTLKTSNNEFYPAEQLTLEDVNENVLKAKYAVRGAIPMRAEELKAQLEKDPQSLPFDRIINANIGNPQQLQQKPLTYYRQVLSLLQYPELLNQNEQQLVDSKLFKLDAIKRAKSLMEDIGGSVGAYSSSQGVEGIRKSVAEFITKRDEGEISYPEDIFLTAGASAAVNYLLSIFCRGPETGVLIPIPQYPLYTATLALNNSQALPYYLDENSGWSTNPEEIETVVKEAIQNEIKPTVLVVINPGNPTGAVLSPESIAQIFEVAAKYGTVVIADEVYQENIFPGTKFHSMKKILRHLQREHPGKFDNVQLASLHSTSKGVSGECGQRGGYMELTGFSHEMRQVILKLASISLCPVVTGQALVDLMVRPPVEGEESFESDQAERNSIHEKLITRAMTLYETFNSLEGIECQKPQGAMYLFPKIDLPFKAVQEARHLELTPDEFYCKKLLESTGICTVPGSGFGQEPGTYHLRTTFLAPGLEWIKKWESFHKEFFDQYRD
notes: ScAlt1, alanine transaminase of S. cerevisiae, amplified from genomic DNA of strain CLA1; no residue limits are stated; the forward primer (CATATGCAATCTTCGCTAAACGACCTGC) places the start at Met-QSSLNDL; the reverse primer appears to lie after the stop codon; theoretical monomer mass printed as 61 kDa; The start of the construct can be worked out from the printed forward primer …
stoichiometry N [4]: 2

B2: ScAlt2 (Saccharomyces cerevisiae presumed alanine transaminase paralogue), recombinant (enzyme, S. cerevisiae, UniProt P52892 1-507, looked up)
chain: T2 sequence (P52892 1-507)
notes: ScAlt2 of S. cerevisiae, amplified from genomic DNA of strain CLA1; the forward primer starts at ATGACAATGACACACCAACAGG (MTMTHQQ) and the reverse primer holds the stop codon (TCA ATT ACG ATA ...); theoretical monomer mass printed as 58 kDa; source: E. coli Rosetta 2 (DE3), pET-28a(+), purified (Ni-NTA)
stoichiometry N [4]: 2

B3: ScAlt1 (Saccharomyces cerevisiae S288C) (protein)
chain: T1 sequence (P52893 81-592)
notes: N-terminal His-tag (pET-28a), E. coli Rosetta 2 (DE3); theoretical monomer 61 kDa, SEC 147 kDa, dimer
Km (purified protein [5]): 0.67 ( ± 0.06) mM
kcat (purified protein [5]): 698 s⁻¹
Km (purified protein [6]): 10.39 ( ± 1.12) mM
kcat (purified protein [6]): 698 s⁻¹
